Data as given in patent US20170273985A1, “TRICYCLIC DERIVATIVE” (Sunovion Pharmaceuticals Inc., priority 2014, published 2017).

Experiments:
Assay type in all cases: biochemical
PDE1B = PDE1B (Homo sapiens, UniProt Q01064); assay: In vitro HTRF PDE1 inhibition assay (PDE1B)
Excerpt: (§1) An exemplary procedure for the in vitro Homogenous Time Resolved Fluorescence assay, which can be used to determine the inhibitory action of compounds of the invention toward PDE1 or its isoforms, follows. The HTRF PDE1 assay utilized the HTRF (Homogenous Time Resolved Fluorescence) technology, which is based on the competition between unlabeled cyclic nucleotide and cyclic nucleotide labeled with XL665 for the binding to cyclic nucleotide-specific antibody labeled with cryptate. The HTRF signal is thus inversely proportional to the concentration of cyclic nucleotide being measured. Since phosphodiesterases break down cyclic nucleotides the HTRF signal was used to determine PDE activity. The Cisbio cGMP HTRF assay kit (Cat no: 62GM2PEC) was utilized. Cyclic GMP was diluted to 200 nM in HTRF assay buffer (1 mM CaCl2, 10 mM MgCl2, 10 mM Tris-HCl, 0.1% BSA, pH 7.4). 10 μl of compound or DMSO was diluted in 200 nM cyclic GMP solution and added to wells of a 96 well white plate to give 100 nM cyclic GMP in 1% DMSO final concentration. PDE (1A3, 1B or IC) was diluted to 2× working concentration in HTRF assay buffer with 2 μg/ml calmodulin, and 10 μl was added to initiate the reaction. The plate was then incubated for 45 minutes at 37° C. d2-Labelled cyclic GMP and anti-cGMP cryptate were diluted in 50 mM phosphate buffer, 0.8 M KF, 1% Triton X100, 0.2% BSA, pH 7.0. Following incubation 10 μl d2-cGMP, then 10 μl anti cGMP cryptate were added to each well and the plate was incubated for 45 minutes at room temperature. The plate was then read on Perkin Elmer Victor at 2 different FRET readings ex/emm 340 nm/665 nm and 340 nm/615 nm. Compounds having an IC50 of <1 μM, are denoted as +++. Compounds having an IC50 of 1−10 μM, are denoted as ++. Compounds having an IC50 of 10-100 μM, are denoted as +.

PDE1A3 = PDE1A3 (Homo sapiens, UniProt P54750); assay: In vitro HTRF PDE1 inhibition assay (PDE1A3)
Excerpt: as §1

PDE1C = PDE1C (Homo sapiens, UniProt Q14123); assay: In vitro HTRF PDE1 inhibition assay (PDE1C)
Excerpt: as §1

IC50 (PDE1B; Table 25) [nM]	Compound	other results
	CCN1c2nn3c(C4CCOCC4)ncc3c(=O)n2CC1c1ccc(OC)cc1 (racemic) [Example 66]	IC50 (PDE1B; Table 22): < 1000 nM; IC50 (PDE1A3; Table 23): < 1000 nM; IC50 (PDE1C; Table 24): 1000 to 10000 nM
	CC(C)c1ncc2c(=O)n3c(nn12)N(CC1CCOCC1)CC3 [Example 1, 8-Isopropyl-1-((tetrahydro-2H-pyran-4-yl)methyl)-2,3-dihydrodiimidazo[2,1-c:1′,5′-f][1,2,4]triazin-5(1H)-one]	IC50 (PDE1B; Table 22): < 1000 nM; IC50 (PDE1A3; Table 23): < 1000 nM; IC50 (PDE1C; Table 24): 1000 to 10000 nM
	CC(C)c1ncc2c(=O)n3c(nn12)N(CCCc1ccccn1)CC3 [Example 11]	IC50 (PDE1B; Table 22): < 1000 nM; IC50 (PDE1A3; Table 23): < 1000 nM; IC50 (PDE1C; Table 24): 1000 to 10000 nM
	CC(C)CN1CCCn2c1nn1c(C(C)C)ncc1c2=O [Example 16]	IC50 (PDE1B; Table 22): < 1000 nM; IC50 (PDE1A3; Table 23): < 1000 nM; IC50 (PDE1C; Table 24): < 1000 nM
	CC(C)c1ncc2c(=O)n3c(nn12)N(CCC1CCOCC1)CCC3 [Example 24]	IC50 (PDE1B; Table 22): < 1000 nM; IC50 (PDE1A3; Table 23): < 1000 nM; IC50 (PDE1C; Table 24): < 1000 nM
	CC(C)c1ncc2c(=O)n3c(nn12)N(CC1CCOCC1)CCC3 [Example 25]	IC50 (PDE1B; Table 22): < 1000 nM; IC50 (PDE1A3; Table 23): < 1000 nM; IC50 (PDE1C; Table 24): < 1000 nM
	CC(C)c1ncc2c(=O)n3c(nn12)N(Cc1ccc(C#N)cc1)CCC3 [Example 30]	IC50 (PDE1B; Table 22): < 1000 nM; IC50 (PDE1A3; Table 23): < 1000 nM; IC50 (PDE1C; Table 24): < 1000 nM
	CC(C)(C)CCN1CCn2c1nn1c(C3CCOCC3)ncc1c2=O [Example 55]	IC50 (PDE1B; Table 22): < 1000 nM; IC50 (PDE1A3; Table 23): < 1000 nM; IC50 (PDE1C; Table 24): < 1000 nM
	O=c1c2cnc(C3CCOCC3)n2nc2n1CCN2CCCC(F)(F)F [Example 56]	IC50 (PDE1B; Table 22): < 1000 nM; IC50 (PDE1A3; Table 23): 1000 to 10000 nM; IC50 (PDE1C; Table 24): 10000 to 100000 nM
	O=c1c2cnc(C3CCOCC3)n2nc2n1CCCN2Cc1ccccc1 [Example 59]	IC50 (PDE1B; Table 22): < 1000 nM; IC50 (PDE1A3; Table 23): < 1000 nM; IC50 (PDE1C; Table 24): 1000 to 10000 nM
< 1000	COc1cccc(CN2CCn3c2nn2c(C4CCOCC4)ncc2c3=O)c1 [Example 158]	
< 1000	O=c1c2cnc(C3CCOCC3)n2nc2n1CCN2Cc1ccc(-c2ccccn2)cc1 [Example 161]	
< 1000	CC(C)CN1CCn2c1nn1c(C3CCOCC3)ncc1c2=O [Example 174]	
< 1000	CC(C)(C)CN1CCn2c1nn1c(C3CCOCC3)ncc1c2=O [Example 175]	
< 1000	CC(C)c1ncc2c(=O)n3c(nn12)N(Cc1ccc(Cl)cn1)CCC3 [Example 177]	
< 1000	O=c1c2cnc(C3CCC3)n2nc2n1CCCN2CC1CCOCC1 [Example 178]	
< 1000	O=c1c2cnc(C3CCC3)n2nc2n1CCCN2Cc1ccc(Cl)cn1 [Example 179]	
< 1000	COC(C)c1ncc2c(=O)n3c(nn12)N(CCC(C)(C)C)CCC3 (stereo not drawn) [Example 180]	
1000 to 10000	COC(C)c1ncc2c(=O)n3c(nn12)N(CCCC(F)(F)F)CCC3 (stereo not drawn) [Example 181]	
< 1000	O=c1c2cnc(C3CCOCC3)n2nc2n1CCCN2CCCC(F)(F)F [Example 182]	
< 1000	CC(C)CN1CCCn2c1nn1c(C3CCOCC3)ncc1c2=O [Example 183]	
< 1000	CC(C)(C)CN1CCCn2c1nn1c(C3CCOCC3)ncc1c2=O [Example 184]	

IC50 (PDE1B; Table 25) [nM]	Compound	other results
< 1000	CC(C)CCN1CCCn2c1nn1c(C3CCOCC3)ncc1c2=O [Example 185]	
< 1000	CC(C)(C)CCN1CCCn2c1nn1c(C3CCOCC3)ncc1c2=O [Example 186]	
	O=c1c2cnc(C3CCOCC3)n2nc2n1CCCN2CCC1(C(F)(F)F)CC1 [Example 188]	IC50 (PDE1A3; Table 26): < 1000 nM; IC50 (PDE1C; Table 27): < 1000 nM
< 1000	O=c1c2cnc(C3CCOCC3)n2nc2n1CCCN2C[C@H]1CC[C@H](C(F)(F)F)CC1 [Example 192]	
< 1000	CO[C@H]1CC[C@@H](CN2CCCn3c2nn2c(C4CCOCC4)ncc2c3=O)CC1 [Example 194]	
< 1000	O=c1c2cnc(C3CCOCC3)n2nc2n1CCCN2C[C@H]1CC[C@@H](C(F)(F)F)CC1 [Example 195]	
< 1000	CCO[C@H]1CC[C@@H](CN2CCCn3c2nn2c(C4CCOCC4)ncc2c3=O)CC1 [Example 196]	
< 1000	O=c1c2cnc(C3CCOCC3)n2nc2n1CCCN2CC1CC1(F)F (stereo not drawn) [Example 197]	
< 1000	CC1CN(CCCC(F)(F)F)c2nn3c(C4CCOCC4)ncc3c(=O)n2C1 (stereo not drawn) [Example 198]	
< 1000	CC(C)c1ncc2c(=O)n3c(nn12)N(CC1CCOCC1)CC(C)(C)C3 [Example 199]	
< 1000	CC(C)c1ncc2c(=O)n3c(nn12)N(CC1CCOCC1)CC(F)(F)C3 [Example 201]	
< 1000	CC(C)CN1CC(F)(F)Cn2c1nn1c(C3CCOCC3)ncc1c2=O [Example 202]	
< 1000	CC(C)CCN1CC(F)(F)Cn2c1nn1c(C3CCOCC3)ncc1c2=O [Example 203]	
< 1000	CC(C)n1ncc2c(=O)n3c(nc21)N(Cc1ccc(C2CCOCC2)cc1)CC3 [Example 204]	
< 1000	CC(C)n1ncc2c(=O)n3c(nc21)N(Cc1ccc(-c2ccc(F)cn2)cc1)CC3 [Example 205]	
< 1000	CC(C)n1ncc2c(=O)n3c(nc21)N(CC1CCC(F)(F)CC1)CC3 [Example 206]	
< 1000	O=c1c2cnn(C3CCOCC3)c2nc2n1CCN2Cc1ccc(-c2ccccn2)cc1 [Example 207]	
< 1000	O=c1c2cnn(C3CCOCC3)c2nc2n1CCN2Cc1ccc(-c2ccc(F)cn2)cc1 [Example 208]	
< 1000	O=c1c2cnn(C3CCOCC3)c2nc2n1CCN2Cc1ccc(C(F)(F)F)cc1 [Example 209]	
< 1000	O=c1c2cnn(C3CCOCC3)c2nc2n1CCN2CC1CCC(F)(F)CC1 [Example 210]	
< 1000	CC(C)(C)CCN1CCn2c1nc1c(cnn1C1CCOCC1)c2=O [Example 211]	
< 1000	O=c1c2cnn(C3CCOCC3)c2nc2n1CCN2CCCC(F)(F)F [Example 212]	

IC50 (PDE1B; Table 25) [nM]	Compound	other results
< 1000	CC(C)CCN1CCn2c1nc1c(cnn1C1CCOCC1)c2=O [Example 213]	
< 1000	CC(C)n1ncc2c(=O)n3c(nc21)N(Cc1ccc(Cl)cn1)CCC3 [Example 214]	
< 1000	CC(C)n1ncc2c(=O)n3c(nc21)N(Cc1ccc(-c2ccccn2)cc1)CCC3 [Example 215]	
< 1000	CC(C)n1ncc2c(=O)n3c(nc21)N(Cc1ccc(C2CCOCC2)cc1)CCC3 [Example 216]	
< 1000	O=c1c2cnn(C3CCOCC3)c2nc2n1CCCN2Cc1ccc(Cl)cn1 [Example 217]	
< 1000	O=c1c2cnn(C3CCOCC3)c2nc2n1CCCN2Cc1ccc(C(F)(F)F)cc1 [Example 218]	
< 1000	O=c1c2cnn(C3CCOCC3)c2nc2n1CCCN2Cc1ccc(F)cc1 [Example 219]	
< 1000	O=c1c2cnn(C3CCOCC3)c2nc2n1CCCN2Cc1ccc(-c2ccccn2)cc1 [Example 220]	
< 1000	O=c1c2cnn(C3CCOCC3)c2nc2n1CCCN2Cc1ccc(-c2ccc(F)cn2)cc1 [Example 221]	
< 1000	O=c1c2cnn(C3CCOCC3)c2nc2n1CCCN2CCCC(F)(F)F [Example 222]	
< 1000	O=c1c2cnn(C3CCOCC3)c2nc2n1CCCN2CC1CCC(F)(F)CC1 [Example 223]	
< 1000	CC(C)CCN1CCCn2c1nc1c(cnn1C1CCOCC1)c2=O [Example 224]	
< 1000	O=c1c2cnn(C3CCOCC3)c2nc2n1CCCN2CCCCC(F)(F)F [Example 225]	
< 1000	CC(C)CN1CCCn2c1nc1c(cnn1C1CCOCC1)c2=O [Example 226]	
< 1000	O=c1c2cnn(C3CCOCC3)c2nc2n1CCCN2CC1CC1(F)F (stereo not drawn) [Example 227]	
< 1000	CC(C)(C)CN1CCCn2c1nc1c(cnn1C1CCOCC1)c2=O [Example 228]	
< 1000	CC(C)(C)CCN1CCCn2c1nc1c(cnn1C1CCOCC1)c2=O [Example 229]	
< 1000	CO[C@@H](C)c1ncc2c(=O)n3c(nn12)N(CCCC(F)(F)F)CC3 [Example 230]	
1000 to 10000	CO[C@H](C)c1ncc2c(=O)n3c(nn12)N(CCCC(F)(F)F)CC3 [Example 231]	
1000 to 10000	Cc1nc(C2CCOCC2)n2nc3n(c(=O)c12)CCN3CCC(C)C [Example 234, 6-Methyl-1-(3-methylbutyl)-8-(tetrahydro-2H-pyran-4-yl)-2,3-dihydro-1H,5H-diimidazo[2,1-c:5′,1′-f][1,2,4]triazin-5-one]	
1000 to 10000	CC(C)CCN1CCn2c1nn1c(C3CCOCC3)nc(C#N)c1c2=O [Example 235, 1-(3-Methylbutyl)-5-oxo-8-(tetrahydro-2H-pyran-4-yl)-2,3-dihydro-1H,5H-diimidazo[2,1-c 5′,1′-f][1,2,4]triazine-6-carbonitrile]	
< 1000	CC(C)CCN1CCn2c1nn1c(C3CCOCC3)nc(Cl)c1c2=O [Example 236, 6-Chloro-1-(3-methylbutyl)-8-(tetrahydro-2H-pyran-4-yl)-2,3-dihydro-1H,5H-diimidazo[2,1-c:5′,1′-f][1,2,4]triazin-5-one]	
